The source of these data is ChEMBL document CHEMBL3351946, “Design and synthesis of potent antitumor water-soluble phenyl N-mustard-benzenealkylamide conjugates via a bioisostere approach” (Eur J Med Chem, 2014).

The nature of data set [1]: Cytotoxicity against human H1299 cells assessed as growth inhibition after 72 hrs by Alamar Blue assay. As to conditions: NCI-H1299, 72 h. In kind it is functional, cell-based. Background: The colour change of resazurin is a common sign of viable cells or microbes.
The nature of data set [2]: Cytotoxicity against human HCT116 cells assessed as growth inhibition after 72 hrs by Alamar Blue assay. In kind it is functional, cell-based. The following applies: HCT-116, 72 h.
Data set [3] in a line: Antitumor activity against human PC3 cells xenografted in nude mouse assessed as tumor growth inhibition at 50 mg/kg,iv administered every 2 days for 5 doses measured on day 24 to 28 relative to control. In kind it is functional, PC-3. (In xenograft studies the graft and the host belong to different species.)
A short description of data set [4]: Antitumor activity against human PC3 cells xenografted in nude mouse assessed as tumor growth inhibition at 40 mg/kg,iv administered every 2 days for 5 doses measured on day 38 relative to control. In kind it is functional. As to conditions: PC-3, iv, read-out: TGI.
Data set [5] concerns Mus musculus. Briefly: Toxicity in nude mouse xenografted with human PC3 cells assessed as body weight loss at 30 mg/kg,iv qd administered for 6 days measured on day 13 relative to control. In kind it is organism-based, PC-3. The arrangement: dose 30 mg/kg. The following applies: in vivo, 144 h.
The subject of data set [6] is Mus musculus. Briefly: Toxicity in nude mouse xenografted with human PC3 cells assessed as body weight loss at 40 mg/kg,iv administered every 2 days for 5 doses measured on day 16 relative to control. In kind it is organism-based, PC-3. The arrangement: dose 40 mg/kg. The following applies: in vivo, 48 h.
Data set [7] concerns Mus musculus. Put plainly: Toxicity in nude mouse xenografted with human H460 cells assessed as body weight loss at 30 mg/kg,iv qd administered for 6 days measured on day 15 relative to control. In kind it is organism-based. The arrangement: dose 30 mg/kg. As to conditions: in vivo, 144 h.
For data set [8], the system named is Mus musculus. Briefly: Toxicity in nude mouse xenografted with human H3347 cells assessed as body weight loss at 30 mg/kg,iv qd administered for 6 days measured on day 13 relative to control. In kind it is organism-based. On the set-up: dose 30 mg/kg. The following applies: in vivo, 144 h.
A further data set relates to PC-3. Put plainly: Antitumor activity against human PC3 cells xenografted in nude mouse assessed as survival at 30 mg/kg,iv qd administered for 6 days. In kind it is functional, organism-based. The arrangement: dose 30 mg/kg.
A further data set deals with NCI-H460. Briefly: Antitumor activity against human H460 cells xenografted in nude mouse assessed as survival at 30 mg/kg,iv qd administered for 6 days. In kind it is functional, organism-based. The arrangement: dose 30 mg/kg.
The nature of data set [9]: Antitumor activity against human HCT116 cells xenografted in nude mouse assessed as tumor growth inhibition at 75 mg/kg,[…] ip administered every 7 days for 2 doses relative to control. The following applies: HCT-116, ip, 168 h, route intraperitoneal, read-out: TGI. In kind it is functional.
Data set [10] can be described thus: Cell cycle arrest in human HCT116 cells assessed as accumulation at sub-G1 phase at 1 uM after 24 hrs by FACS flow cytometric analysis (reference value: 1.37 +/- 0.95%). In kind it is functional, cell-based. The following applies: HCT-116. On the technique in general: Flow cytometry measures light scatter and fluorescence of single cells or particles in a stream.

A short description of data set [11]: Cell cycle arrest in human HCT116 cells assessed as accumulation at G2/M phase at 1 uM after 24 hrs by FACS flow cytometric analysis (reference value: 31.55 +/- 4.63%). In kind it is functional, cell-based. The following applies: HCT-116.
Data set [12] is described as follows: Cell cycle arrest in human HCT116 cells assessed as accumulation at S phase at 2 uM after 24 hrs by FACS flow cytometric analysis (reference value: 18.71 +/- 2.25%). In kind it is functional, cell-based. The following applies: HCT-116.
A short description of data set [13]: Cell cycle arrest in human HCT116 cells assessed as accumulation at G1 phase at 4 uM after 24 hrs by FACS flow cytometric analysis (reference value: 48.75 +/- 3.69%). In kind it is functional, cell-based. As to conditions: HCT-116.
Data set [14] is described as follows: Cell cycle arrest in human HCT116 cells assessed as accumulation at G2/M phase at 1 uM after 48 hrs by FACS flow cytometric analysis (reference value: 23.95 +/- 1.87%). In kind it is functional, cell-based. The following applies: HCT-116.
Data set [15] in a line: Cell cycle arrest in human HCT116 cells assessed as accumulation at G2/M phase at 4 uM after 48 hrs by FACS flow cytometric analysis (reference value: 23.95 +/- 1.87%). In kind it is functional, cell-based. As to conditions: HCT-116.
Data set [16] in a line: Cell cycle arrest in human HCT116 cells assessed as accumulation at sub-G1 phase at 1 uM after 72 hrs by FACS flow cytometric analysis (reference value: 3.29 +/- 1.39%). In kind it is functional, cell-based. The following applies: HCT-116.
A short description of data set [17]: Cell cycle arrest in human HCT116 cells assessed as accumulation at G2/M phase at 1 uM after 72 hrs by FACS flow cytometric analysis (reference value: 12.82 +/- 2.19%). The following applies: HCT-116. In kind it is functional, cell-based.
Another data set relates to HCT-116. Briefly: Induction of apoptosis in human HCT116 cells assessed as caspase-3 cleavage at 1 to 4 uM after 24 hrs by Western blot analysis. In kind it is functional, cell-based.
For data set [18], the system named is Mus musculus. Briefly: Toxicity in iv dosed CD-1 (ICR) mouse assessed as piloerection measured for 14 days. In kind it is organism-based. As to conditions: in vivo, 336 h.
The subject of data set [19] is Mus musculus. Briefly: Toxicity in CD-1 (ICR) mouse assessed as body weight loss at 75 to 105 mg/kg, iv measured on day 8. In kind it is organism-based. On the set-up: dose 75-105 mg/kg, route intravenous. As to conditions: in vivo.
Data set [20] addresses Voltage-gated inwardly rectifying potassium channel KCNH2 (Homo sapiens, UniProt Q12809). Put plainly: Binding affinity to human ERG after 4 hrs by fluorescence polarization assay.

Calls of active or inactive are those of the source. The calls are words filed in the database; no cut-off is given here.

Sequence of Voltage-gated inwardly rectifying potassium channel KCNH2 (Q12809 whole entry): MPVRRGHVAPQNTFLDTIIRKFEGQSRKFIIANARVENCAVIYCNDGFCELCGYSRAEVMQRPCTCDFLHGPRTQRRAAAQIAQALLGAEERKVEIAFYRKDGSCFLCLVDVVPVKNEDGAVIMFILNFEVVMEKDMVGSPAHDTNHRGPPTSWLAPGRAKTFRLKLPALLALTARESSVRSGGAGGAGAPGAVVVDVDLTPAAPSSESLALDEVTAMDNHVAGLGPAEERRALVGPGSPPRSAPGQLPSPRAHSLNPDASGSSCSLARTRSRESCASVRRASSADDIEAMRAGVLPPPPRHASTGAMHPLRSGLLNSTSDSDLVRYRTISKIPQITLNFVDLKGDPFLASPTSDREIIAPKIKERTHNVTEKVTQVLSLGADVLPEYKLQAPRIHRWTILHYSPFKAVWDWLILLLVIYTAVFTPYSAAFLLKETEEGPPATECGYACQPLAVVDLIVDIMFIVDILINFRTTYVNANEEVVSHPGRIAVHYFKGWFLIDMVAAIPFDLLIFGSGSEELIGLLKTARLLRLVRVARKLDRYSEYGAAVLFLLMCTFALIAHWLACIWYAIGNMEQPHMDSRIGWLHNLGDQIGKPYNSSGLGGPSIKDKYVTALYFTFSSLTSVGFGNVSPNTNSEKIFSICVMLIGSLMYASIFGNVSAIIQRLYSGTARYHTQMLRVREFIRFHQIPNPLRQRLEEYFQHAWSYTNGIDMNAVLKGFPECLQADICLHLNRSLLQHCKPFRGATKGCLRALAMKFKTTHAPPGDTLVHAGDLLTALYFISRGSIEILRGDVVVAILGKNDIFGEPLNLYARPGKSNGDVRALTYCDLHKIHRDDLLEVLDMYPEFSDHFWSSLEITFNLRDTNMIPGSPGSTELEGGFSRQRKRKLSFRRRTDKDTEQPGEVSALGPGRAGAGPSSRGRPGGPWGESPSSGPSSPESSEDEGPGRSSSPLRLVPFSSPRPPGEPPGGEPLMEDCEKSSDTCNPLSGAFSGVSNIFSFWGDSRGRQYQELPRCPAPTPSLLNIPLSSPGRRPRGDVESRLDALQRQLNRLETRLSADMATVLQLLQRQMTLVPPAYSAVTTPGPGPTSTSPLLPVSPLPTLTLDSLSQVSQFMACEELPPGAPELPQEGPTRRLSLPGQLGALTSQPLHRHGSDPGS

With `CCN(CC)CC(=O)Nc1ccc(NC(=O)Nc2ccc(N(CCCl)CCCl)cc2)cc1`, the IC50 (as a rule, the concentration that inhibits the measured activity by half) in data set [1] stood at 3430 nM; in [2], 820 nM. The “%max” value in data set [3] is 88%; with Mus musculus [5], -15%; in the data set on Mus musculus [6] it was -15%; in the data set on Mus musculus [7], -18%. Further, the inhibition in vivo at 40 mg/kg in [4] was found to be 3%. The Activity in the data set with Mus musculus [8] was found to be 10%; in data set [10], 1.58%; in data set [11] it was 63.2%; in [12] it was 23.9%; in data set [13] it was 12.8%; in data set [14] it was 28.2%. Besides, the Activity in data set [15] is 54.1%; in data set [16] it was 12.4%; in data set [17], 20.5%; in the data set with Mus musculus [18], “Dose-dependent effect”; in the data set with Mus musculus [19], “Toxic”; in data set [20], 4.48 µM. In addition, the outcome in the data set on PC-3, in the data set with NCI-H460 and in the data set with HCT-116 was Active. The inhibition in vivo at 75 mg/kg in data set [9] is 54%.
